Reference: patent publication US6204067A, “Methods of identifying modulators of the estrogen receptor” (Board of Trustees Operating Michigan State University, priority 1999, dated 2001)

Tests used:
[1] = test system: microsomes isolated from MCF-7/ADR cells; test: In vitro acidification of MCF-7/ADR microsomes (acridine orange quenching); assay type: biochemical; settings: for rate of dissipation of pre-existing pH gradient: added 10 minutes after ATP, tamoxifen 8 μM, bafilomycin A1 100 nM
Procedure: Cells were grown in Minimal Essential. Medium supplemented with 10% Fetal Bovine Serum to confluence in 10 level Cell Factories (Nunc, Naperville, Ill.), trypsinized, washed 3× with cold PBS and lysed with a Dounce homogenizer (Pestle A) in 0.25 M sucrose, 20 mM HEPES (pH 7.4), 1 mM DTT, 1 mM EDTA, and 1× protease inhibitor mix (1 μg/ml leupeptin, 1 μ/ml pepstatin A, 1 μg/ml aprotinin, and 16 μM PMSF mixed to 100× before use). The homogenate was centrifuged twice for 10 minutes at 3000×g to remove unbroken cells and nuclei. The supernatant was layered over 20 ml of 0.5 M sucrose (20 mM HEPES (pH 7.4), 1 mM DTT, 1 mM EDTA, 1× protease inhibitor mix) and 1 ml of 2 M sucrose and centrifuged for 1 hour at 100,000 g (Beckman Ti60 Rotor). Microsomes are collected at the 0.5M and 2M interface.
To monitor acidification of the total microsomal fraction, the quenching of AO fluorescence was monitored essentially as described previously [Barasch et al., Nature 352:70-73 (1991)]. Acidic vesicles accumulate AO to high concentrations resulting in the self quenching of the dye and a decrease of the overall fluorescence. Fluorescence was measured on an SLM Aminco-Bowman series 2 luminescence spectrometer with λex =488 nm and λem =530 nm Microsomes (80 μg protein) were suspended in 2.5 ml vesicle buffer (125 mM KCl, 5 mM MgCl2, 20 mM HEPES (pH 7.4), 1 mM DTT, 1 mM EDTA, 2 mM NaN3), with 6 μM AO (5 mM stock in H2 O) in a cuvet. […] After equilibration for 30 minutes at 25° C. 1 mM Tris-ATP was added to begin acidification (100 mM stock, titrated to pH 7.4 with 1 M Tris-base before use). Twenty minutes later, 2.5 μM of nigericin (10 mM stock in EtOH) was added to dissipate any ΔpH formation.
Acridine orange (AO) was used as a probe for lumenal acidification. As vesicles acidify, they accumulate AO to self-quenching concentrations, and deplete the extra-vesicular free AO, resulting in a decrease in total fluorescence. Acidification was initiated by the addition of ATP to a purified microsomal fraction in the absence of cytosol (FIG. 1A, at t=300 sec). […] Nigericin, a K^+ /H^+ exchanger that rapidly dissipates pH gradients, was added at the end of each reaction (t=1500 seconds).

[2] = Procedure: The lumenal pH (pHL) of liposomes was assayed with pyranine, a fluorescent dye with a pKa~7.3 and a λex =405 nm in its acid form (-3 charge) and a λex =455 nm in its basic form (-4 charge). To prepare pyranine loaded liposomes, lipids (2 mg POPC, 1 mg cholesterol) supplied in chloroform suspension were dried in a round bottom flask under argon for 2 hours. The lipids were then resuspended in acidic or alkaline liposome buffer (300 mM KCl, 20 mM MES, 20 mM MOPS, 20 mM Tricine titrated with KOH to either pH 6.2 or pH 8.1) containing 0.5 mM pyranine. The suspension was incubated at room temperature overnight, then freeze-thawed 6×. Unilamellar liposomies were prepared by extrusion 3× through 2 stacked 100 nm Nucleopore (Corning/Costar Scientific, Acton, Mass.) polycarbonate filters in an Avestin (Vancouver, BC) extruder at 600 PSI.
The pyranine fluorescence was calibrated as a function of pH by diluting the liposomes with pH 6.2 into a weakly buffered solution of identical pH (300 mM KCl, 1 mM MES, 1 mM MOPS, 1 mM Tricine, pH 6.2), 1 μM nigericin to allow rapid equilibration with external pH and 5 mM DPX to quench external pyranine. The ratio of the fluorescence emission at λem =510 nm was monitored with dual excitation wavelengths of λex =405 nm and λex =455 nm. Sequential aliquots of 0.1 mM glycylglycine, pH 8.4 were added to increase pH (See FIG. 5). The fluorescence was measured after each addition and the pH was measured using a pH meter. […] The cahiration curve for the liposomes of lumenal pH 8.1 was generated identically except sequential aliquots of 0.1 mM K-MES pH 5.0 were added for titration and the curve was generated between pH 8.1 and pH 6.4.
To measure the rate of pH dissipation of liposomes with lumenal pH=6.2, the liposomes were diluted in weakly buffered solution of identical pH as described above, but with no nigericin. […] The external pH was shifted to pH 7.3 by addition of 5 mM glycylglycine pH 8.4 and the fluorescence ratio monitored. After 10 minutes, 1 μM nigericin was added to dissipate the remaining pH gradient. The pHL was calculated using the equation pH=x*log(λex =405 nm/[…])+c, were x and c are constants from the least square fit of the titration curve. To measure the rate of pH dissipation of liposomes with pHL =8.1, the identical procedure was followed except 5 mM K-MES pH 5.0 was added to shift the external pH to 6.9.
Liposomes were loaded with pyranine, a hydrophilic, non-permeable fluorescent pH indicator to assay proton permeability. […] Two steps were taken to ensure that only pHL was measured and to permit the discrimination between dissipation of pH gradient and the lysis or dye leakage from liposomes.

[3] = Liposome chloride concentration (lucigenin); settings: after addition of 50 mM KCl; tamoxifen 2, 4, 8 μM, valinomycin 1 μM
yeast vacuoles = test: Acidification of yeast vacuoles (acridine orange); assay type: biochemical, S. cerevisiae
Procedure: Vacuoles from S. cerevisiae were prepared from the protease deficient strain BJ2407 (Yeast Genetic Stock Center, University of California, Berkeley) by sequential floatation through 12% and 8% Ficoll 400 cushion as described previously [Roberts et al., Methods Enzymol, 194:644-661 (1991)] with the single modification that 1× protease inhibitor mix and 1 mM DTT was included in each step. […] Acidification was measured using AO as described above. For acidification in chloride-free solution, gluconate or glutamate was used in vesicle buffer instead of chloride.
ATP (1.5 mM) was added at 50 sec to initiate acidification and at 400 sec nigericin (1 μM) was added to dissipate pH gradients.

estrogen receptor = biological target: T1, estrogen receptor (Homo sapiens, UniProt P03372); settings: higher affinity; cited from earlier work
T1 sequence (P03372 1-595): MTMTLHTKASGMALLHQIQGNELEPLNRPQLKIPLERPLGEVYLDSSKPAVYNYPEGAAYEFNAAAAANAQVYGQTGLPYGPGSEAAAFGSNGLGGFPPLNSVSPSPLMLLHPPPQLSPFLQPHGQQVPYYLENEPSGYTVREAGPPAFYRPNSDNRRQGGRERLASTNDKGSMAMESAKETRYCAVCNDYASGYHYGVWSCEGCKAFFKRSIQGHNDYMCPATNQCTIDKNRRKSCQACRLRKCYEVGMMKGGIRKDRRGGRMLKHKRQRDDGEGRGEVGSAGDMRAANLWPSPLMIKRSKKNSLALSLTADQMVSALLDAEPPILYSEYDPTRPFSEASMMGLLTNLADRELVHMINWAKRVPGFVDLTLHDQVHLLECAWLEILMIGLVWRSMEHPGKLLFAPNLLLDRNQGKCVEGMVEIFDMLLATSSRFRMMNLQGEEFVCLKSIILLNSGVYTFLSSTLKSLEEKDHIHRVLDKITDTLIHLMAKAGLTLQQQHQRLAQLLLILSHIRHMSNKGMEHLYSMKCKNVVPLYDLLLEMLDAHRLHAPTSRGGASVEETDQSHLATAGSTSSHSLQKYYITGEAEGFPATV

With `CO[C@@H]1C[C@@H](C[C@H]2CC[C@H](C)[C@H]([C@@H](C)C(=O)O)O2)O[C@]2(O[C@](C)([C@H]3CC[C@@](C)([C@@H]4O[C@@H]([C@H]5O[C@@](O)(CO)[C@H](C)C[C@@H]5C)C[C@@H]4C)O3)C[C@H]2C)[C@@H]1C` [nigericin] as the compound, how does the “rate of dissipation of pre-existing pH gradient” value [1] read?
The value was “significantly faster than tamoxifen”.

For `CC(C)[C@@H]1NC(=O)[C@H](C)OC(=O)[C@@H](C(C)C)NC(=O)[C@@H](C(C)C)OC(=O)[C@H](C(C)C)NC(=O)[C@H](C)OC(=O)[C@@H](C(C)C)NC(=O)[C@@H](C(C)C)OC(=O)[C@H](C(C)C)NC(=O)[C@H](C)OC(=O)[C@@H](C(C)C)NC(=O)[C@@H](C(C)C)OC1=O` [valinomycin], which “effect on pHL after shift of external pH” value ([2]; pHL 6.2, external pH shifted to 7.3, tamoxifen 0.5 or 2 μM, NH4Cl 1 mM, FCCP 1 μM, valinomycin 1 μM) is on record?
Its value is “faster dissipation of the pH gradient than FCCP”.

And the “rate of pH gradient dissipation, alkaline lumen” value ([2]; pHL 8.1, external pH shifted to 6.9, tamoxifen 0.5-8 μM, NH4Cl 5 mM, FCCP 1 μM, valinomycin 1 μM)?
Its value is “greater dissipation of pH gradient than FCCP”.

And the “rate of chloride influx into liposomes” value [3]?
Its value is “increased the rate of chloride equilibration”.

Which acidification blocked ([1]; 10 nM (one tenth of 100 nM), pre-treatment, FIG. 1A) does the source give for `CO/C1=C\C(C)=C\[C@@H](C)[C@@H](O)[C@@H](C)C/C(C)=C/C=C/[C@H](OC)[C@@H]([C@@H](C)[C@@H](O)[C@H](C)[C@@]2(O)C[C@@H](O)[C@H](C)[C@@H](C(C)C)O2)OC1=O` [bafilomycin A1, Bafilomycin A1] here?
Its acidification blocked is 95%.

And the “rate of dissipation of pre-existing pH gradient” value [1]?
Its value is “much slower rate”.

Which “effect of addition on pHL without pre-existing pH gradient” value ([2]; pHL 6.2 = external pH, tamoxifen 2 μM, 8 μM, NH4Cl 5 mM) does the source give for `Cl.N` [ammonium chloride] here?
Its value is “alkalinization of the lumen”.

What about the “effect of addition to pre-acidified vacuoles” value (yeast vacuoles; added at 250 sec, tamoxifen 2 μM, ammonium 1 mM) of the same compound?
The value was “step alkalinization”.

What about the “concentration relative to tamoxifen for similar inhibition” value (yeast vacuoles; ammonium chloride 1 mM) of the same compound?
Its value is 1000 fold.

And the “inhibition of vacuole acidification” value (yeast vacuoles; pre-equilibrated, tamoxifen 2 μM or 8 μM, ammonium chloride 1 mM)?
The value was “slightly inhibited”.

For `CC[C@@]1([C@@H]2O[C@@H]([C@H]3O[C@@](O)(CO)[C@H](C)C[C@@H]3C)C[C@@H]2C)CC[C@H]([C@]2(C)CC[C@]3(C[C@H](O)[C@@H](C)[C@@H]([C@@H](C)[C@@H](OC)[C@H](C)C(=O)O)O3)O2)O1` [monensin], which “rate of dissipation of pre-existing pH gradient” value [1] is on record?
Its value is “significantly faster than tamoxifen”.

For `CC/C(=C(/c1ccc(OCCN(C)C)cc1)c1cccc(O)c1)c1ccccc1` [Droloxifene, 3-hydroxytamoxifen], which “binding affinity to the estrogen receptor relative to tamoxifen” value (estrogen receptor) is on record?
Its value is 10-60 fold.
